Results: patent US10703764B2, “Benzopiperazine compositions as BET bromodomain inhibitors” (FORMA Therapeutics, Inc., priority 2013, dated 2020)

Legend:
MV4-11 cells = experiment: Oncology cell growth assay (3-day proliferation, CellTiter-Glo); assay type: cell-based; conditions: Homo sapiens, MV4-11, 72 h, AML cell line MV4-11, 72 hours, compounds grouped by IC50 range, read-out: MV4-11 IC50 (inhibition of proliferation, gIC50)
Summary of the method: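 Luminescence from CellTiter-Glo served as the growth read-out after MV4-11 cells (3000/well) were cultured with compound for 72 hours. Final concentrations spanned 10 to 0.0045 μM in 3-fold steps. gIC50 values were derived by four-parameter logistic fitting relative to DMSO and cell-free controls.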

BRD4 BD1 = target: T1, BRD4 BD1 (Homo sapiens, UniProt O60885); experiment: AlphaScreen binding assay, BRD4 Bromodomain 1
T1 construct: made in house
Summary of the method: (§1)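 An AlphaScreen competition format was used with His-BRD4 BD1 or BD2 and biotin-H4 K5/8/12/16-acetyl peptide, each at matched final levels of 50 nM (BD1) or 100 nM (BD2). Incubation in HEPES/NaCl buffer with 0.1% BSA and 0.01% Triton X-100 ran ≥1 h before IC50 determination.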

BRD4 BD2 = target: T2, BRD4 BD2 (Homo sapiens, UniProt O60885); experiment: AlphaScreen binding assay, BRD4 Bromodomain 2
T2 construct: made in house
Summary of the method: as §1

`CC(=O)N1c2ccc(-c3cccc(S(=O)(=O)N(C)C)c3)cc2N(C(=O)c2ccco2)C[C@@H]1C` [Example I-845] was tested, and the IC50 (MV4-11 cells) was 100 to 500 nM, the IC50 (BRD4 BD1) was 100 to 1000 nM and the IC50 (BRD4 BD2) was 50 to 500 nM.

For `CC(=O)N1c2ccc(-c3cccc(C(=O)N(C)C)c3)cc2N(C(=O)c2ccco2)C[C@@H]1C` [Example I-848], the IC50 (MV4-11 cells) was 100 to 500 nM, the IC50 (BRD4 BD1) was 100 to 1000 nM and the IC50 (BRD4 BD2) was less than 50 nM.

`CC(=O)N1c2ccc(-c3cccc4c3OCO4)cc2N(C(=O)c2ccco2)C[C@@H]1C` [Example I-849] showed an IC50 (MV4-11 cells) greater than 500 nM, an IC50 (BRD4 BD1) of 100 to 1000 nM and an IC50 (BRD4 BD2) of 50 to 500 nM.

`CC(=O)N1c2ccc(-c3ccc(N4CCOCC4)cc3)cc2N(C(=O)c2ccco2)C[C@@H]1C` [Example I-850] was tested, and the IC50 (MV4-11 cells) was 100 to 500 nM, the IC50 (BRD4 BD1) was 100 to 1000 nM and the IC50 (BRD4 BD2) was less than 50 nM.

`CC(=O)N1c2ccc(-c3ccc4c(cnn4C)c3)cc2N(C(=O)c2ccco2)C[C@@H]1C` [Example I-852] gave an IC50 (MV4-11 cells) of 100 to 500 nM, an IC50 (BRD4 BD1) of 100 to 1000 nM and an IC50 (BRD4 BD2) of 50 to 500 nM.

In the case of `CC(=O)N1c2ccc(-c3cccc(-n4nc(C)cc4C)c3)cc2N(C(=O)c2ccco2)C[C@@H]1C` [Example I-857], the IC50 (MV4-11 cells) is reported as greater than 500 nM, the IC50 (BRD4 BD1) is reported as 100 to 1000 nM and the IC50 (BRD4 BD2) is reported as less than 50 nM.

`CC(=O)N1c2ccc(-c3cccc(NS(=O)(=O)c4ccc(C)cc4)c3)cc2N(C(=O)c2ccco2)C[C@@H]1C` [Example I-859] was tested, and the IC50 (MV4-11 cells) was 100 to 500 nM, the IC50 (BRD4 BD1) was 100 to 1000 nM and the IC50 (BRD4 BD2) was less than 50 nM.

With `CC(=O)N1c2ccc(-c3ccc(NS(=O)(=O)c4ccc(C)cc4)cc3)cc2N(C(=O)c2ccco2)C[C@@H]1C` [Example I-860] the IC50 (MV4-11 cells) was less than 100 nM, the IC50 (BRD4 BD1) was 100 to 1000 nM and the IC50 (BRD4 BD2) was less than 50 nM.

`CC(=O)N1c2ccc(-c3ccnc(N4CCOCC4)c3)cc2N(C(=O)c2ccco2)C[C@@H]1C` [Example I-862] gave an IC50 (MV4-11 cells) greater than 500 nM, an IC50 (BRD4 BD1) of 100 to 1000 nM and an IC50 (BRD4 BD2) of 50 to 500 nM.

With `COc1cc(-c2ccc3c(c2)N(C(=O)c2ccco2)C[C@H](C)N3C(C)=O)ccn1` [Example I-863] the IC50 (MV4-11 cells) was greater than 500 nM, the IC50 (BRD4 BD1) was 1000 to 10000 nM and the IC50 (BRD4 BD2) was 50 to 500 nM.

`CC(=O)N1c2ccc(-c3ccc4cnccc4c3)cc2N(C(=O)c2ccco2)C[C@@H]1C` [Example I-864] showed an IC50 (MV4-11 cells) of 100 to 500 nM, an IC50 (BRD4 BD1) of 100 to 1000 nM and an IC50 (BRD4 BD2) of 50 to 500 nM.

`CC(=O)N1c2ccc(-c3ccc4scnc4c3)cc2N(C(=O)c2ccco2)C[C@@H]1C` [Example I-865] was tested, and the IC50 (MV4-11 cells) was 100 to 500 nM, the IC50 (BRD4 BD1) was 100 to 1000 nM and the IC50 (BRD4 BD2) was less than 50 nM.

For `CC(=O)N1c2ccc(-c3cccc(N4CCCCC4)c3)cc2N(C(=O)c2ccco2)C[C@@H]1C` [Example I-867], the IC50 (MV4-11 cells) was greater than 500 nM, the IC50 (BRD4 BD1) was 1000 to 10000 nM and the IC50 (BRD4 BD2) was 50 to 500 nM.

`CNC(=O)c1cccc(-c2ccc3c(c2)N(C(=O)c2ccco2)CCN3C(C)=O)c1` [Example I-868] showed an IC50 (MV4-11 cells) greater than 500 nM, an IC50 (BRD4 BD1) greater than 10000 nM and an IC50 (BRD4 BD2) greater than 500 nM.

`CC(=O)N1c2ccc(-c3ccc(N(C)C)cc3)cc2N(C(=O)c2ccco2)C[C@@H]1C` [Example I-871] showed an IC50 (MV4-11 cells) of 100 to 500 nM, an IC50 (BRD4 BD1) of 100 to 1000 nM and an IC50 (BRD4 BD2) of less than 50 nM.

Compound `CC(=O)N1c2ccc(-c3ccc(C)s3)cc2N(C(=O)c2ccco2)C[C@@H]1C` [Example I-872] has an IC50 (MV4-11 cells) of 100 to 500 nM, an IC50 (BRD4 BD1) of 100 to 1000 nM and an IC50 (BRD4 BD2) of less than 50 nM.

For `CC(=O)N1c2ccc(-c3ccc(N4CCN(C)CC4)cc3)cc2N(C(=O)c2ccco2)C[C@@H]1C` [Example I-874], the IC50 (MV4-11 cells) was 100 to 500 nM, the IC50 (BRD4 BD1) was 100 to 1000 nM and the IC50 (BRD4 BD2) was less than 50 nM.

`CNS(=O)(=O)c1ccc(-c2ccc3c(c2)N(C(=O)c2ccco2)C[C@H](C)N3C(C)=O)cc1` [Example I-875] gave an IC50 (MV4-11 cells) of 100 to 500 nM, an IC50 (BRD4 BD1) of 100 to 1000 nM and an IC50 (BRD4 BD2) of less than 50 nM.

With `CCS(=O)(=O)Nc1cccc(-c2ccc3c(c2)N(C(=O)c2ccco2)C[C@H](C)N3C(C)=O)c1` [Example I-876] the IC50 (MV4-11 cells) was 100 to 500 nM, the IC50 (BRD4 BD1) was 100 to 1000 nM and the IC50 (BRD4 BD2) was less than 50 nM.

`CNC(=O)N1c2ccc(-c3ccc(S(C)(=O)=O)cc3)cc2N(C(=O)c2ccco2)C[C@@H]1C` [Example I-988] was tested, and the IC50 (MV4-11 cells) was greater than 500 nM, the IC50 (BRD4 BD1) was 1000 to 10000 nM and the IC50 (BRD4 BD2) was 50 to 500 nM.

`CC(=O)N1c2ccc(-c3cnn(C4CC4)c3)cc2N(C(=O)OCC2CC2)C[C@@H]1C` [Example I-994] was tested, and the IC50 (MV4-11 cells) was 100 to 500 nM, the IC50 (BRD4 BD1) was 100 to 1000 nM and the IC50 (BRD4 BD2) was 50 to 500 nM.

`C[C@H]1CN(C(=O)OCC2CC2)c2cc(-c3cnn(C4CC4)c3)ccc2N1C(=O)C1CC1` [Example I-995] gave an IC50 (MV4-11 cells) of 100 to 500 nM, an IC50 (BRD4 BD1) of 100 to 1000 nM and an IC50 (BRD4 BD2) of 50 to 500 nM.

Work on `COC(=O)N1c2ccc(-c3cnn(C4CC4)c3)cc2N(C(=O)OCC2CC2)C[C@@H]1C` [Example I-996] yielded an IC50 (MV4-11 cells) greater than 500 nM, an IC50 (BRD4 BD1) of 100 to 1000 nM and an IC50 (BRD4 BD2) greater than 500 nM.

`CC(=O)N1c2ccc(-c3cnn(C4CC4)c3)cc2N(C(=O)OC2COC2)C[C@@H]1C` [Example I-997] showed an IC50 (MV4-11 cells) of 100 to 500 nM, an IC50 (BRD4 BD1) of 100 to 1000 nM and an IC50 (BRD4 BD2) of 50 to 500 nM.

In the case of `CC(=O)N1c2ccc(-c3cnn(C4CC4)c3)cc2N(C(=O)OC2CCOCC2)C[C@@H]1C` [Example I-1000], the IC50 (MV4-11 cells) is reported as 100 to 500 nM, the IC50 (BRD4 BD1) is reported as less than 100 nM and the IC50 (BRD4 BD2) is reported as 50 to 500 nM.

Compound `C[C@H]1CN(C(=O)OC2CCOCC2)c2cc(-c3cnn(C4CC4)c3)ccc2N1C(=O)C1CC1` [Example I-1001] has an IC50 (MV4-11 cells) of 100 to 500 nM, an IC50 (BRD4 BD1) of 100 to 1000 nM and an IC50 (BRD4 BD2) of 50 to 500 nM.

`COC(=O)N1c2ccc(-c3cnn(C4CC4)c3)cc2N(C(=O)OC2CCOCC2)C[C@@H]1C` [Example I-1002] showed an IC50 (MV4-11 cells) of 100 to 500 nM, an IC50 (BRD4 BD1) of 100 to 1000 nM and an IC50 (BRD4 BD2) of 50 to 500 nM.

`CC(=O)N1c2ccc(-c3cnn(C4CC4)c3)cc2N(C(=O)OC2CCC2)C[C@@H]1C` [Example I-1003] was tested, and the IC50 (MV4-11 cells) was less than 100 nM, the IC50 (BRD4 BD1) was less than 100 nM and the IC50 (BRD4 BD2) was 50 to 500 nM.

Work on `COC(=O)N1c2ccc(-c3cnn(C4CC4)c3)cc2N(C(=O)OC2CCC2)C[C@@H]1C` [Example I-1005] yielded an IC50 (MV4-11 cells) of 100 to 500 nM, an IC50 (BRD4 BD1) of 100 to 1000 nM and an IC50 (BRD4 BD2) of 50 to 500 nM.

`CC(=O)N1c2ccc(-c3ccc(N4CCCS4(=O)=O)cc3)cc2N(C(=O)Oc2ccc(F)cc2F)C[C@@H]1C` [Example I-1011] gave an IC50 (MV4-11 cells) of 100 to 500 nM, an IC50 (BRD4 BD1) of 100 to 1000 nM and an IC50 (BRD4 BD2) of less than 50 nM.

Compound `CC(=O)N1c2ccc(-c3cnn(CCC#N)c3)cc2N(C(=O)Oc2ccc(F)cc2F)C[C@@H]1C` [Example I-1012] has an IC50 (MV4-11 cells) of 100 to 500 nM, an IC50 (BRD4 BD1) of 100 to 1000 nM and an IC50 (BRD4 BD2) of less than 50 nM.

`CC(=O)N1c2ccc(-c3ccc(NS(C)(=O)=O)cc3)cc2N(C(=O)Oc2ccc(F)cc2F)C[C@@H]1C` [Example I-1013] showed an IC50 (MV4-11 cells) of 100 to 500 nM, an IC50 (BRD4 BD1) of 100 to 1000 nM and an IC50 (BRD4 BD2) of 50 to 500 nM.

`CC(=O)N1c2ccc(-c3cnn(C(C)(C)CO)c3)cc2N(C(=O)Oc2ccc(F)cc2F)C[C@@H]1C` [Example I-1014] showed an IC50 (MV4-11 cells) of 100 to 500 nM, an IC50 (BRD4 BD1) of 100 to 1000 nM and an IC50 (BRD4 BD2) of less than 50 nM.

Compound `CC(=O)N1c2ccc(-c3cnn(CCO)c3)cc2N(C(=O)Oc2ccc(F)cc2)C[C@@H]1C` [Example I-1015] has an IC50 (MV4-11 cells) of 100 to 500 nM, an IC50 (BRD4 BD1) of 100 to 1000 nM and an IC50 (BRD4 BD2) of 50 to 500 nM.

`CC(=O)N1c2ccc(-c3cnn(CCC#N)c3)cc2N(C(=O)Oc2ccc(F)cc2)C[C@@H]1C` [Example I-1018] was tested, and the IC50 (MV4-11 cells) was 100 to 500 nM, the IC50 (BRD4 BD1) was less than 100 nM and the IC50 (BRD4 BD2) was less than 50 nM.

In the case of `CC(=O)N1c2ccc(-c3ccc(NS(C)(=O)=O)cc3)cc2N(C(=O)Oc2ccc(F)cc2)C[C@@H]1C` [Example I-1019], the IC50 (MV4-11 cells) is reported as 100 to 500 nM, the IC50 (BRD4 BD1) is reported as 100 to 1000 nM and the IC50 (BRD4 BD2) is reported as less than 50 nM.

`CC(=O)N1c2ccc(-c3cnn(C(C)(C)CO)c3)cc2N(C(=O)Oc2ccc(F)cc2)C[C@@H]1C` [Example I-1020] showed an IC50 (MV4-11 cells) of 100 to 500 nM, an IC50 (BRD4 BD1) of 100 to 1000 nM and an IC50 (BRD4 BD2) of less than 50 nM.

With `CC(=O)N1c2ccc(-c3ccc(N4CCCS4(=O)=O)cc3)cc2N(C(=O)Oc2ccc(F)cc2)C[C@@H]1C` [Example I-1021] the IC50 (MV4-11 cells) was less than 100 nM, the IC50 (BRD4 BD1) was 100 to 1000 nM and the IC50 (BRD4 BD2) was 50 to 500 nM.
